Patent publication US20110117120A1, “Plasmodium falciparum HLA class I restricted T-cell epitopes” (priority 2009, published 2011)
Entries after “also recorded” stand apart in the source; their conditions may differ. No end group written: not given here.

Assays:
Assay type in all cases: cell-based, human
[1] = test system: CD4+ and CD8+ T cells of PBMC; test: Intracellular cytokine staining (ICS) of CD4+ and CD8+ T cells; details: for CD8^+ T cell IFN-γ response in ICS: HLA-matched volunteers, FIG. 1 upper panel; for multifunctional CD8^+ T cell responses in ICS: v008 and v012, any two of IFN-γ, IL-2, TNF-α, FIG. 1 lower panel
Procedure: ICS was performed on PBMCs with costimulatory antibodies anti-CD28 and […] (obtained from BD Bioscience™, San Jose, Calif.). The peptides were used at the same concentrations as in ELISpot assays. Stimulants were added t cells and incubated at 37° C. with 5% CO2 for 2 hr. Golgi Plug™ (Brefeldin A) (BD Bioscience™, San Jose, Calif.) was added at a final concentration of 0.6 μL/mL and incubated at 37° C. with 5% CO2 overnight. Cells were stained with anti-CD3 (Alexa Fluor 700™), anti-CD4 (PerCP™), and anti-CD8 Pacific Blue™ (obtained from BD Bioscience™, San Jose, Calif.). and 1 μg/mL of live/dead fixable blue dye, incubated and washed. Cells were permeabilized with Cytofix/Cytoperm™ solution (obtained from BD Bioscience™, San Jose, Calif.), incubated and washed. Cells were stained intracellularly with anti-CD3 ([…]), anti-CD4 (PerCP™), and anti-CD8 Pacific Blue™, anti-IFN-γ FITC, anti-TNF PE, and anti-IL2 APC, incubated and washed. Cells were resuspended and the entire available sample was acquired by flowcytometry. The gating strategy included progressively measuring total cells; viable cells only; lymphocytes; T cells; CD4^+ CD8^+ populations; and a specific cell type expressing a specific cytokine. Histograms were used to determine the total production of IFN-γ, IL2, and TNF for the CD4^+ and CD8^+ populations. Boolean gates were used to determine cells producing combinations of cytokines.
In these studies, T cells containing IFN-γ, IL2, or TNFα, were gated into different subsets: IFN-γ+, IL2+, TNFα−; IFN-γ+, IL2-, TNFα+; IFN-γ+, IL2+, TNFα+; or IFN-γ+, IL2−, TNFα− T cells, and stimulated with the predicted epitopes and their parent peptide pool. The frequency of CD8^+ T cells producing total IFN-γ was far greater than CD4^+ T cell responses (FIG. 1, upper panel), which were extremely low.

PBMC [2] = test: ELISpot IFN-γ assay with PBMC of AdPfCA / DNA-primed volunteers (Example 2); details: 12 wk post challenge
Excerpt: To more clearly define immunological active regions of AMA1, PBMCs were isolated from AMA1 immunized volunteers. Two groups of volunteers, i.e., Gp 1 (from example 1, above) and Gp2, received 2×10^10 particle units of AdPfCA (NMRC-M3V-Ad-PfCA, NMRC+Multi-antigen Multi-stage, Malaria Vaccine+Adenovector+P. falciparum CSP & AMA1 antigens). The vaccine is a combination of two separate recombinant Ad5 constructs, one expressing full length CSP and the other expressing full length apical membrane antigen 1 (AMA1). AdPfCA expressed the AMA1 regions A1 through A12. Twenty-eight (28) days later, PBMC's were collected.
In a third group (termed preCh in FIG. 7 and FIG. 8), fifteen volunteers were primed with three doses (2 mg/dose) with one month between doses. Sixteen weeks after the final DNA priming dose, each volunteer received 2×10^10 particle units of AdPfCA. PBMC's were collected on day 22-23 after receiving AdPfCA. The region of the AMA gene expressed by the DNA expression plasmid is also illustrated in FIG. 6. The DNA vaccine expressed approximately half of the A1 region of AMA1, the entire regions of A2 through A10 and a portion of A11. As in Gp 1 and Gp 2, AdPfCA expressed the AMA1 regions A1 through A12.
(§1) The stimulation of circulating antigen-specific T cell lymphocytes was evaluated by measurement of γ-IFN induction by ELISPOT. The ELISpot assay was conducted using thawed cryopreserved PBMC at 200 K cells per well. Pre-challenge cells were taken at day 21 and day 22 post AdPfCA vaccination. Cells were suspended in […] complete medium and were stimulated with AMA1 peptides suspended in […] of complete medium. Peptide concentrations used in assays was 10 μg/ml of each peptide tested. Cultures were incubated for 36 h at 37° C., 5% CO2. Depending on availability of cells, each PBMC sample was assayed in duplicate, triplicate, or quadruplicate and the number of IFN-γ-secreting cells recognized as spot-forming cells (SFC) was enumerated using an automated ELISpot reader. In duplicate assays, all values were used in analysis. For triplicate or quadruplicate assays, outliers were rejected if any single value contributed more than 50% of the standard deviation of the triplicate (or quadruplicate) and if its value was three-fold greater or less than the average of the remaining two (or three) values. The mean spot forming cells (SFCs) obtained in negative control wells were subtracted from the value of each test well from the same sample. Negative counts generated by this background subtraction were converted to zero. The mean spot number of the test sample was then calculated and expressed as SFC/million PBMCs. Values obtained with pre-vaccinated samples were subtracted from the post-vaccination values.
In a further study, volunteers were immunized with AdCA. […]

PBMC [3] = test: ELISpot IFN-γ assay with PBMC of Ad5-PfCA immunized volunteers (Example 1); details: threshold 40 SFC/million
Procedure: In order to assess the pools for their ability to induce T-cell responses, specifically CD 8^+ responses, PBMC, 1 month post immunization were used, from the five volunteers in Table 1, in ELISpot assays. In these studies, IFN-γ activity was measured in response to exposure to the peptide pools. The assays were conducted essentially as described by Wang, et al., Proc. Natl. Acad. Sci. (U.S.A.), 98: 10817-22.
as §1

[4] = test system: CD8+ or CD4+ T-cell depleted PBMC; test: ELISpot IFN-γ assay after CD8+ or CD4+ T-cell depletion (Example 2, Table 6); details: for CD4^+ depletion % change / CD8^+ Depletion % change / CD4^+ depletion, test / CD8^+ Depletion, test / CD4^+ depletion, control / CD8^+ Depletion, control: Vol. 1550-11; for CD4^+ depletion, test: CD4+ depleted; for CD8^+ Depletion, test: CD8+ depleted
Procedure: PBMC population depletion was conducted using anti-human CD4+ and anti-CD8^+ coated Dynabeads™ M-450 (Dynal, Great Neck, N.Y.) following the manufacturer's instructions. Mock depletion was done with Dynabeads coated with Sheep anti-mouse IgG. Flow cytometry confirmed that T-cell subset depletions were >99% in all experiments. The data is presented as the % effect (decrease) in activity after T cell subset depletion. […]
The results of this study, summarized in Table 6, identified other CD8^+ epitopes, associated specific HLA class I genes.

ETQKCEIFNV (listed as Plasmodium falciparum) [Epitope 10]
CD8^+ T cell IFN-γ response in ICS [1]: very weak CD8^+ IFN-γ responses
multifunctional CD8^+ T cell responses in ICS [1]: did not appear to induce multifunctional responses

HPKEYEYPL (listed as Plasmodium falciparum) [Epitope 9]
CD8^+ T cell IFN-γ response in ICS [1]: equal or more CD8^+ IFN-γ than the parent peptide pool

KSHGKGYNW (listed as Plasmodium falciparum)
Unfract. PBMC (PBMC [2]; Vol. 1550-10): 159 SFC/10^6
Unfract. PBMC (PBMC [2]; Vol. 1550-18): 181 SFC/10^6

NEFPAIDLF (listed as Plasmodium falciparum) [Epitope 2]
CD8^+ T cell IFN-γ response in ICS [1]: equal or more CD8^+ IFN-γ than the parent peptide pool

NEVVVKEEY [Epitope 1, NEVVVKEEY]
CD8^+ T cell IFN-γ response in ICS [1]: equal or more CD8^+ IFN-γ than the parent peptide pool

REHPKEYEYPLHQEH [Ap1-12]
CD4^+ versus CD8^+ T cell IFN-γ response (ICS and ELISpot depletion, words) ([1]; v001 and v005, FIG. 3): strongly recognized by CD8^+ T cells; also recorded: induced both CD4^+ and CD8^+ T cell responses
IFN-γ ELISpot activity of individual 15-mer peptide (PBMC [3]; Volunteer 002): 66 SFC/10^6
IFN-γ ELISpot activity of individual 15-mer peptide (PBMC [3]; Volunteer 005): 118 SFC/10^6
CD4^+ depletion % change ([4]; 4 wk post challenge): 78%
CD8^+ Depletion % change ([4]; 4 wk post challenge): 70%
CD4^+ depletion, test ([4]; 4 wk post challenge): 28 SFC/10^6
CD8^+ Depletion, test ([4]; 4 wk post challenge): 37 SFC/10^6
CD4^+ depletion, control ([4]; 4 wk post challenge): 126 SFC/10^6
CD8^+ Depletion, control ([4]; 4 wk post challenge): 126 SFC/10^6
CD4^+ depletion % change ([4]; Pre-challenge): 59%
CD8^+ Depletion % change ([4]; Pre-challenge): 49%
CD4^+ depletion, test ([4]; Pre-challenge): 67 SFC/10^6
CD8^+ Depletion, test ([4]; Pre-challenge): 83 SFC/10^6
CD4^+ depletion, control ([4]; Pre-challenge): 161 SFC/10^6
CD8^+ Depletion, control ([4]; Pre-challenge): 161 SFC/10^6
reduction in ELISpot response after depletion of CD8^+ T-cells ([4]; summary of Table 6): 49-66%

RYKSHGKGY (listed as Plasmodium falciparum) [Epitope 14]
CD8^+ T cell IFN-γ response in ICS [1]: very weak CD8^+ IFN-γ responses
multifunctional CD8^+ T cell responses in ICS [1]: did not appear to induce multifunctional responses

TLDEMRHFY [Epitope 8]
CD8^+ T cell IFN-γ response in ICS [1]: equal or more CD8^+ IFN-γ than the parent peptide pool

YKSHGKGYNW (listed as Plasmodium falciparum)
Unfract. PBMC (PBMC [2]; Vol. 1550-10): 144 SFC/10^6
Unfract. PBMC (PBMC [2]; Vol. 1550-18): 271 SFC/10^6
